Test results published in article PMC7958298 (Journal of the American Chemical Society, 2020).

What was measured:
pre-miRNA-21 stem = assay: BLI binding to pre-miRNA-21 stem missing the hairpin loop; details: relative to pre-miRNA-21 hairpin, SI Figure 1
pre-miRNA-21 = assay: Circular dichroism melting of pre-miRNA-21; format: physicochemical; details: pre-miRNA-21 alone vs with 39, SI Figure 3
[1] = system: hairpin derived from HIV RNA; assay: BLI binding to unrelated hairpin derived from HIV RNA; details: SI Figure 1

Substance: Lys-DabG-hAlaA-Arg-Asp-DabA-Leu-hAlaG-Ala-Lys [Compound 39]
- reduction of affinity towards the pre-miRNA-21 stem, missing the hairpin loop (pre-miRNA-21 stem): over 50 fold
- shift in melting temperature of pre-miRNA-21 in the presence of peptide (pre-miRNA-21): no significant shift in melting temperature
- binding to unrelated hairpin derived from HIV RNA [1]: high affinity
